Results reported in patent US7576128B2 (priority 2004, dated 2009).

Legend:
androgen receptor = target: T1, androgen receptor (Homo sapiens, UniProt P10275); assay: AR antagonist cell assay, MDA-MB453-MMTV clone 54-19 luciferase reporter; format: cell-based; details: MDA-MB453-MMTV clone 54-19, 100 pM DHT, 17 hr; mean of multiple tests; read-out: AR Cell IC50
T1 sequence (P10275 1-920 Q868H): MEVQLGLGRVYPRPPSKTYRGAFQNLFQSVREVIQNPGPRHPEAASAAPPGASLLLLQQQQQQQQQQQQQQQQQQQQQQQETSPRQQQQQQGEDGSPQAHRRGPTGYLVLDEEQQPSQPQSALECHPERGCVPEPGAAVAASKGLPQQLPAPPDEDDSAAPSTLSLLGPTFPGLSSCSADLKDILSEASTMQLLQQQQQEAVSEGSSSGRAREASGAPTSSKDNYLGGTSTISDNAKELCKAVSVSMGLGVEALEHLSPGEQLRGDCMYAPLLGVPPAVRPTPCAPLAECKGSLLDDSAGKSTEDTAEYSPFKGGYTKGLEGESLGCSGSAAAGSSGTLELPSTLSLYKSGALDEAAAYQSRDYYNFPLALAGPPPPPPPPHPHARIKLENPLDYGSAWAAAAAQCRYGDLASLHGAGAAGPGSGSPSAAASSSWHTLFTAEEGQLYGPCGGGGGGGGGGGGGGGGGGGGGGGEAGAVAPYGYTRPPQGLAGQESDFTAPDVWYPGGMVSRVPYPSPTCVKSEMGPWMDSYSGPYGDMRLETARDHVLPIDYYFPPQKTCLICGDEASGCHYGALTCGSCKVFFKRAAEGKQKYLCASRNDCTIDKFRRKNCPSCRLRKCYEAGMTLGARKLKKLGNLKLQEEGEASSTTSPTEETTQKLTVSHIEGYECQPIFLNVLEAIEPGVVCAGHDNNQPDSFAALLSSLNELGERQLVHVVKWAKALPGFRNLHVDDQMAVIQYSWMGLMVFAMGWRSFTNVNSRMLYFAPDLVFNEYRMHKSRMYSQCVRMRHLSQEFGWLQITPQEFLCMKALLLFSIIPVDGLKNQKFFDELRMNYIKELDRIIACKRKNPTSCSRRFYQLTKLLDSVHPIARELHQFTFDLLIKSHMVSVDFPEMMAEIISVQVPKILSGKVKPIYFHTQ
Procedure: The compounds ability to antagonize the effects of androgen on the androgen receptor were determined in a whole cell assay as described immediately below.
This cell line is a stable transfected cell line with MDA-MB453 cell background (a human breast tumor cell line expressing androgen receptor). A MMTV minimal promoter containing ARE was first cloned in front of a firefly luciferase reporter gene. Then the cascade was cloned into transfection vector pUV120puro. Electroporation method was used for transfecting MDA-MB-453 cell. Puromycin resistant stable cell line was selected.
• 1. Cells are maintained in culture medium, splitting cells when they reach 80-90% confluence • 2. To test compounds, 10,000 cells/well are plated to opaque 96 cell culture plate in 100 ul/well plating medium, culture for overnight at 37° C. in cell culture incubator • 3. Carefully remove plating medium, then add 80 ul/well of pre-warmed assay medium, add 10 ul/well testing compound (final concentration at) 1000 nM, 200 nM, 40 nM, 8 nM, 1.6 nM, and 0.32 nM), incubate at 37° C. for 30 minutes • 4. Add 10 ul/well freshly prepared DHT (final concentration at 100 pM) to each well, incubate at 37° C. for 17 hr (overnight) • 5.
The results are reported as the mean of multiple tests as described below (the numbers of tests are indicated in the footnote). N.D. denotes that the compound was not tested.

Male C3H/HeN mice = assay: Modified telogen conversion assay (hair growth, induction of anagen); format: in vivo; details: topical twice daily for 4 weeks
Text: It has been discovered that male C3H/HeN mice may be used in the telogen conversion assay, when evaluating anti-androgen test compounds. Thus, the model relates to a modification of the existing telogen conversion assay. Male C3H/HeN mice approximately 7 weeks old are utilized. These animals are also uniformly in telogen, like their female counterparts. However, once shaven, the androgens inherently present in these male mice inhibit the conversion of the hair follicles to the anagen phase. An anti-androgen will block this androgenic effect and the follicles will convert to anagen, like their female counterparts.
Male C3H/HeN mice, 6 to 7 weeks old (Charles River Laboratories, Raleigh, N.C.) were used for the study. Fur was clipped from the dorsal region of the mice prior to initiation of the study. Only mice with pink skin, a visual indication of the telogen phase, were selected for inclusion in the study.
The test compound was dissolved in a vehicle consisting of propylene glycol (30%) and ethanol (70%) to achieve a concentration of either 0.2% w/v, 0.5% w/v, 1% w/v or 3% w/v. The relevant dose was applied topically to the clipped dorsal region of the mice in one test group (7-10 mice) in a volume of 20 μl/cm^2. A third group of animals received only the vehicle to serve as a control. Treatments were applied twice daily for 4 weeks.
The treatment area was observed and graded every other day for signs of hair growth. The hair growth response was quantified by recording, for each animal, the day on which signs of hair growth first appeared over the treated area. The first sign of anagen was the darkening of skin color as melanocytes in the follicles started to synthesize melanin in preparation for the production of pigmented hairs. […] The percentage of mice showing signs of hair growth in both the treatment group and the control group is graphically depicted in FIG. 1.

| Structure (SMILES) | IC50 (androgen receptor) [nM] | rate of hair growth versus vehicle control group (Male C3H/HeN mice; 5% test group) | hair growth (induction of anagen) (Male C3H/HeN mice; concentration of 1%) |
| --- | --- | --- | --- |
| CCCCC(COc1ccc(C#N)c(C(F)(F)F)c1)C(C)O (stereo not shown) [Example 15, 4-[2-(1-Hydroxy-ethyl)-hexyloxy]-2-tri-fluoromethyl-benzonitrile] | 124 | – | – |
| C[C@H](O)CC[C@H](C)Oc1ccc(C#N)c(C(F)(F)F)c1 [Example 23, (1S,4S)-4-(4-Hy-droxy-1-methylpentyl-oxy)-2-tri-fluoromethyl-benzonitrile] | 132 | did not exceed that of the vehicle control group | produced substantial hair growth |
